In brackets after ≈: the same amount, converted by molar mass.
Legend:
S. marcescens GN6944 = assay: MIC, agar plate dilution method, S. marcescens GN6944; assay type: cell-based, Serratia marcescens; settings: S. marcescens GN6944, GM-resistant; for MIC: Serratia marcescens, read-out: minimal inhibitory concentration (MIC)
Summary of the method: (§1)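 Agar plate dilution per Japan Society of Chemotherapy standard; read-out = MIC in μg/mL.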

E. faecium ATCC19434 = assay: MIC, agar plate dilution method, E. faecium ATCC19434; assay type: cell-based, Enterococcus faecium; settings: for MIC: Enterococcus faecium, ATCC19434, E. faecium ATCC19434, read-out: minimal inhibitory concentration (MIC)
Summary of the method: as §1

P. aeruginosa MSC01035 = assay: MIC, agar plate dilution method, P. aeruginosa MSC01035; assay type: cell-based, Pseudomonas aeruginosa; settings: P. aeruginosa MSC01035, ABK-resistant; for MIC: Pseudomonas aeruginosa, read-out: minimal inhibitory concentration (MIC)
Summary of the method: as §1

[1] = system: K. pneumoniae ATCC BAA-2146; assay: MIC, agar plate dilution method, K. pneumoniae ATCC BAA-2146; assay type: cell-based, Klebsiella pneumoniae; settings: for MIC: Klebsiella pneumoniae, ATCCBAA2146, K. pneumoniae ATCC BAA-2146, NDM-producing strain, read-out: minimal inhibitory concentration (MIC)
Summary of the method: as §1

E. coli JM109/pMW218 = assay: MIC, agar plate dilution method, E. coli JM109/pMW218; assay type: cell-based, Escherichia coli; settings: for MIC: Escherichia coli, JM109/PMW218, E. coli JM109/pMW218, Sensitive bacterium, read-out: minimal inhibitory concentration (MIC)
Summary of the method: as §1

S. aureus RN4220/pMS520 = assay: MIC, agar plate dilution method, S. aureus RN4220/pMS520; assay type: cell-based, Staphylococcus aureus; settings: for MIC: Staphylococcus aureus, MRSA, read-out: minimal inhibitory concentration (MIC), S. aureus RN4220/pMS520, MRSA
Summary of the method: as §1

[2] = system: A. baumannii ATCC BAA-1710; assay: MIC, agar plate dilution method, A. baumannii ATCC BAA-1710; assay type: cell-based, Acinetobacter baumannii; settings: for MIC: Acinetobacter baumannii, ATCCBAA1710, A. baumannii ATCC BAA-1710, MDRA, read-out: minimal inhibitory concentration (MIC)
Summary of the method: as §1

[3] = system: K. pneumoniae ATCC BAA-1705; assay: MIC, agar plate dilution method, K. pneumoniae ATCC BAA-1705; assay type: cell-based, Klebsiella pneumoniae; settings: for MIC: Klebsiella pneumoniae, ATCCBAA1705, K. pneumoniae ATCC BAA-1705, KPC-producing strain, read-out: minimal inhibitory concentration (MIC)
Summary of the method: as §1

P. aeruginosa MSC17707 = assay: MIC, agar plate dilution method, P. aeruginosa MSC17707; assay type: cell-based, Pseudomonas aeruginosa; settings: for MIC: Pseudomonas aeruginosa, MSC17707, P. aeruginosa MSC17707, AMK-resistant, read-out: minimal inhibitory concentration (MIC)
Summary of the method: as §1

P. aeruginosa PAO1/GN315 = assay: MIC, agar plate dilution method, P. aeruginosa PAO1/GN315; assay type: cell-based, Pseudomonas aeruginosa; settings: for MIC: Pseudomonas aeruginosa, read-out: minimal inhibitory concentration (MIC), P. aeruginosa PAO1/GN315, AMK-resistant
Summary of the method: as §1

S. aureus RN4220 = assay: MIC, agar plate dilution method, S. aureus RN4220; assay type: cell-based, Staphylococcus aureus; settings: for MIC: Staphylococcus aureus, RN4220, S. aureus RN4220, Sensitive bacterium, read-out: minimal inhibitory concentration (MIC)
Summary of the method: as §1

P. aeruginosa PAO1 = assay: MIC, agar plate dilution method, P. aeruginosa PAO1; assay type: cell-based, Pseudomonas aeruginosa; settings: for MIC: Pseudomonas aeruginosa, PAO1, P. aeruginosa PAO1, Sensitive bacterium, read-out: minimal inhibitory concentration (MIC)
Summary of the method: as §1

S. aureus MF490 = assay: MIC, agar plate dilution method, S. aureus MF490; assay type: cell-based, Staphylococcus aureus; settings: for MIC: Staphylococcus aureus, MRSA, read-out: minimal inhibitory concentration (MIC)
Summary of the method: as §1

S. marcescens TH-0447 = assay: MIC, agar plate dilution method, S. marcescens TH-0447; assay type: cell-based, Serratia marcescens; settings: for MIC: Serratia marcescens, TH0447, S. marcescens TH-0447, AMK-resistant, read-out: minimal inhibitory concentration (MIC)
Summary of the method: as §1

Structure (SMILES) | MIC (S. marcescens GN6944) [µg/mL] | MIC (E. faecium ATCC19434) [µg/mL] | MIC (P. aeruginosa MSC01035) [µg/mL] | MIC [1] [µg/mL] | MIC (E. coli JM109/pMW218) [µg/mL] | MIC (S. aureus RN4220/pMS520) [µg/mL] | MIC [2] [µg/mL] | MIC [3] [µg/mL] | MIC (P. aeruginosa MSC17707) [µg/mL] | MIC (P. aeruginosa PAO1/GN315) [µg/mL] | MIC (S. aureus RN4220) [µg/mL] | MIC (P. aeruginosa PAO1) [µg/mL] | MIC (S. aureus MF490) [µg/mL] | MIC (S. marcescens TH-0447) [µg/mL] | other results
CNC1C(O[C@H]2OC(CO)[C@@H](NC(=N)N)[C@H](O)C2O)O[C@H]2CC(N)[C@@H](O[C@@H]3C(N)C[C@@H](N)C[C@H]3O)OC2C1O (stereo partly drawn) [Compound S1-o, 4″-deamino-6-deoxy-5-epi-4″-guanidinoapramycin] | 2 (≈ 3.54 µM) | 8 (≈ 14.1 µM) | 4 (≈ 7.07 µM) | 0.5 (≈ 0.884 µM) | 0.5 (≈ 0.884 µM) | 1 (≈ 1.77 µM) | 4 (≈ 7.07 µM) | 1 (≈ 1.77 µM) | 4 (≈ 7.07 µM) | 4 (≈ 7.07 µM) | 1 (≈ 1.77 µM) | 2 (≈ 3.54 µM) | 2 (≈ 3.54 µM) | 4 (≈ 7.07 µM) | –
CNC1C(O[C@H]2OC(C)[C@@H](NC(CN)CN)[C@H](O)C2O)O[C@H]2CC(N)[C@@H](O[C@H]3CC(O)[C@H](N)CC3N)OC2C1O (stereo partly drawn) [Compound S1-p, 4″-N-(1,3-diaminopropan-2-yl)-5,6″-dideoxyapramycin] | 4 (≈ 6.9 µM) | 4 (≈ 6.9 µM) | 4 (≈ 6.9 µM) | 1 (≈ 1.73 µM) | 1 (≈ 1.73 µM) | 1 (≈ 1.73 µM) | 8 (≈ 13.8 µM) | 1 (≈ 1.73 µM) | 4 (≈ 6.9 µM) | 4 (≈ 6.9 µM) | 1 (≈ 1.73 µM) | 2 (≈ 3.45 µM) | 2 (≈ 3.45 µM) | 8 (≈ 13.8 µM) | –
CNC1C(O[C@H]2OC(C)[C@@H](NC(=N)N)[C@H](O)C2O)O[C@H]2CC(N)[C@@H](O[C@H]3CC(O)[C@H](N)CC3N)OC2C1O (stereo partly drawn) [Compound S1-q, 4″-deamino-5,6″-dideoxy-4″-guanidinoapramycin] | 4 (≈ 7.28 µM) | 4 (≈ 7.28 µM) | 8 (≈ 14.6 µM) | 0.5 (≈ 0.91 µM) | 0.5 (≈ 0.91 µM) | 1 (≈ 1.82 µM) | 16 (≈ 29.1 µM) | 1 (≈ 1.82 µM) | 8 (≈ 14.6 µM) | 8 (≈ 14.6 µM) | 1 (≈ 1.82 µM) | 4 (≈ 7.28 µM) | 4 (≈ 7.28 µM) | 4 (≈ 7.28 µM) | –
CN[C@@H]1[C@@H](O[C@H]2O[C@H](CO)[C@@H](NC)[C@H](O)[C@H]2O)O[C@H]2C[C@@H](N)[C@@H](O[C@H]3CC[C@H](N)C[C@@H]3N)O[C@@H]2[C@@H]1O [Compound T2-a, 5,6-dideoxy-4″-N-methylapramycin] | – | – | – | – | – | – | – | – | – | – | – | – | – | – | minimal inhibitory concentration (MIC) (S. marcescens GN6944): 4 µg/mL (≈ 7.67 µM); minimal inhibitory concentration (MIC) (E. faecium ATCC19434; E. faecium ATCC19434): 8 µg/mL (≈ 15.3 µM); minimal inhibitory concentration (MIC) (P. aeruginosa MSC01035): 4 µg/mL (≈ 7.67 µM); minimal inhibitory concentration (MIC) ([1]; K. pneumoniae ATCC BAA-2146, NDM-producing strain): 1 µg/mL (≈ 1.92 µM); minimal inhibitory concentration (MIC) (E. coli JM109/pMW218; E. coli JM109/pMW218, Sensitive bacterium): 0.5 µg/mL (≈ 0.959 µM); minimal inhibitory concentration (MIC) (S. aureus RN4220/pMS520; S. aureus RN4220/pMS520, MRSA): 1 µg/mL (≈ 1.92 µM); minimal inhibitory concentration (MIC) ([2]; A. baumannii ATCC BAA-1710, MDRA): 4 µg/mL (≈ 7.67 µM); minimal inhibitory concentration (MIC) ([3]; K. pneumoniae ATCC BAA-1705, KPC-producing strain): 1 µg/mL (≈ 1.92 µM); minimal inhibitory concentration (MIC) (P. aeruginosa MSC17707; P. aeruginosa MSC17707, AMK-resistant): 4 µg/mL (≈ 7.67 µM); minimal inhibitory concentration (MIC) (P. aeruginosa PAO1/GN315; P. aeruginosa PAO1/GN315, AMK-resistant): 4 µg/mL (≈ 7.67 µM); minimal inhibitory concentration (MIC) (S. aureus RN4220; S. aureus RN4220, Sensitive bacterium): 2 µg/mL (≈ 3.83 µM); minimal inhibitory concentration (MIC) (P. aeruginosa PAO1; P. aeruginosa PAO1, Sensitive bacterium): 4 µg/mL (≈ 7.67 µM); minimal inhibitory concentration (MIC) (S. aureus MF490; S. aureus MF490, MRSA): 8 µg/mL (≈ 15.3 µM); minimal inhibitory concentration (MIC) (S. marcescens TH-0447; S. marcescens TH-0447, AMK-resistant): 4 µg/mL (≈ 7.67 µM)
CNC1C(O[C@H]2OC(CO)[C@@H](NCCN)[C@H](O)C2O)O[C@H]2CC(N)[C@@H](O[C@H]3CC[C@H](N)CC3N)OC2C1O (stereo partly drawn) [Compound T2-b, 4″-N-(2-aminoethyl)-5,6-dideoxyapramycin] | 8 (≈ 14.5 µM) | 16 (≈ 29.1 µM) | 16 (≈ 29.1 µM) | 2 (≈ 3.63 µM) | 1 (≈ 1.82 µM) | 4 (≈ 7.26 µM) | 8 (≈ 14.5 µM) | 2 (≈ 3.63 µM) | 8 (≈ 14.5 µM) | 8 (≈ 14.5 µM) | 4 (≈ 7.26 µM) | 8 (≈ 14.5 µM) | 8 (≈ 14.5 µM) | 8 (≈ 14.5 µM) | –
CNC1C(O[C@H]2OC(CO)[C@@H](NCCCN)[C@H](O)C2O)O[C@H]2CC(N)[C@@H](O[C@H]3CC[C@H](N)CC3N)OC2C1O (stereo partly drawn) [Compound T2-c, 4″-N-(3-aminopropyl)-5,6-dideoxyapramycin] | 4 (≈ 7.08 µM) | 8 (≈ 14.2 µM) | 8 (≈ 14.2 µM) | 1 (≈ 1.77 µM) | 1 (≈ 1.77 µM) | 2 (≈ 3.54 µM) | 4 (≈ 7.08 µM) | 1 (≈ 1.77 µM) | 4 (≈ 7.08 µM) | 4 (≈ 7.08 µM) | 2 (≈ 3.54 µM) | 4 (≈ 7.08 µM) | 8 (≈ 14.2 µM) | 8 (≈ 14.2 µM) | –
